Measurements reported in PMC9499506, “TNF-α and IL-1β Modulate Blood-Brain Barrier Permeability and Decrease Amyloid-β Peptide Efflux in a Human Blood-Brain Barrier Model” (International Journal of Molecular Sciences, 2022).

Assays:
BLECs [1] = conditions: MTT assay; 10 ng·mL^−1, 24 h, abluminal compartment
Protocol: An MTT assay was performed as a preliminary test to determine their effect on BLEC viability and to validate the chosen concentrations. Dimethyl sulfoxide (DMSO) at 10% (v/v) was used as a positive control of cell toxicity.
After 6 days of coculture, TNF-α or IL-1β were added to the basolateral compartment (brain side) at 10 ng·mL^−1 for 24 h, at 37 °C and 5% CO2, to mimic CNS inflammation condition. Each condition was studied in triplicate.
The standard MTT [3-(4,5-dimethylthiazol-2-yl)-2,5-diphenyltetrazolium bromide] assay (AR1156, Boster Biological Technology, Pleasanton, CA, USA) was performed to determine BLEC viability. Briefly, after coculture treatments, culture medium was removed and replaced with worm Ringer-Hepes (RH; 150 mM NaCl, 5.2 mM KCl, 2.2 mM CaCl2, 0.2 mM MgCl2–6H2O, 6 mM NaHCO3, 5 mM HEPES, 2.8 mM glucose; pH: 7.4) in basolateral compartment and with MTT solution (0.5 mg·mL^−1) in RH at in the opposite compartment for 3 h at 37 °C and 5% CO2. […] Aliquot was sampled in 96-well plate and the optical density (OD) was measured with a microplate reader (Synergy H1, BioTek. Colmar, France) at the wavelength of 570 and 630 nm. The percentage of relative cell viability compared to the control condition was subsequently determined using the following formula: % relative cell viability = ((OD570 − OD630) condition)/((OD570 – OD630)control) × 100.

BLECs [2] = test: Immunostaining of tight junction proteins in BLECs (localization, area fraction staining); assay type: cell-based, human; conditions: 10 ng·mL^−1, 24 h; for BLEC morphology and TJ protein localization: immunofluorescence of ZO-1, occludin, claudin-3, claudin-5
Protocol: After 24 h of treatment with or without proinflammatory cytokines, BLECs were fixed and permeabilized, as described in Table 1. Then, a blocking step was performed with Sea Block Blocking Buffer (#37527 from Thermofisher, Rockford, IL, USA) for 30 min. BLECs were incubated for 1 h with the primary antibody in phosphate buffered saline, calcium-magnesium-free (PBS-CMF; 0.2 g·L^−1 KH2PO4, 8.0 g·L^−1 NaCl, 2.87 g·L^−1 Na2HPO4–12H2O, and 0.2 g·L^−1 KCl) with 2% (v/v) normal goat serum (NGS) at room temperature (RT) against targeted proteins, as described in Table 1.
After three washes with PBS-CMF supplemented with 2% NGS, BLECs were incubated with secondary polyclonal antibody (goat anti-rabbit Alexa 568, A11036, Molecular Probes, Eugene, OR, USA) diluted 1:500 in PBS-CMF supplemented with 2% NGS in the dark for 30 min at RT. Then, ProLong™ Diamond Antifade Mountant with DAPI (#P36962, Invitrogen) was used for nuclei staining and mounting. The stained slides were conserved in the fridge. The staining images were taken using a Leica microscope (DMRD; Leica Microsystems, Wetzlar, Germany) and processed using ImageJ software.
Claudin-3 and claudin-5 area fraction staining were subsequently quantified within the BLECs using ImageJ software. Staining images from the same experiment were taken with the same threshold according to the staining, and could thus be compared with each other. Due to the absence of BLEC delineation, the total fraction area staining for each image was thus quantified and normalized by the number of nuclei. Studies were performed with at least three independent experiments and at least three randomized staining images per experiment containing around 50 BLECs each.

BLECs [3] = test: Effect of cytokines on Aβ1–40Cy5 transcytosis quotient across BLECs; assay type: cell-based, human; conditions: cytokine 10 ng·mL^−1 basolateral, 24 h; then 30 min transport at 37 °C; compared to control
Protocol: As TNF-α and IL-1β modulated the protein expression levels of LRP1, BCRP and PICALM (Figure 4), we investigated the effect of these cytokines on the transport of Aβ peptide across the BBB. After 24 h of treatment with proinflammatory cytokines, the apical-to-basolateral (influx) and basolateral-to-apical (efflux) Aβ1–40Cy5 peptide transports across the BLECs were assessed in the presence of FITC-inulin. The Aβ1–40 peptide was used in all experiments, as it is the most abundant amyloid peptide found on cerebral blood vessels. FITC-inulin was used to determine the nonspecific transcytosis quotient (Figure 5A). Indeed, unlike Aβ peptide, FITC-inulin is not actively cleared at the BBB and acts as a reference marker of paracellular permeability, thus as previously reported.
Each condition was studied in triplicate.
After proinflammatory cytokine treatments, the influx (apical-to-basolateral) and the efflux (basolateral-to-apical) transport of Aβ1–40 peptides across BLECs were investigated as previously described. Briefly, for influx studies, inserts with BLECs were transferred to new 12-well plates containing 1.5 mL of RH–HSA 0.1% (the receiver solution) per well. In the insert, 0.5 mL of RH-HSA 0.1% supplemented with 10 nM Aβ1–40Cy5 peptide were added (the donor solution). For efflux studies, inserts with BLECs were transferred to new 12-well plates, this time containing 1.5 mL of RH-has 0.1% with 10 nM fluorescent Aβ1–40Cy5 (the donor solution) peptide, then 0.5 mL of RH-HSA 0.1% (the receiver solution) was added in the insert. […] The BBB integrity was determined by measuring the endothelial permeability of a radioactive integrity marker, ^14C-sucrose, using the same method of calculation as described in Section 4.4. […] At the end of the experiment, aliquots of the receiver and donor solutions were collected, and the fluorescence compounds (Aβ1–40Cy5 peptide and FITC-inulin) were quantified with a spectrofluorimeter (Synergy H1, Biotek, Colmar, France). The radioactivity of ^14C-saccharose was measured using a scintillation counter (Hidex 300 SL, Hidex, Turku, Finland). The apparent permeability coefficients (cm.sec^−1) of Aβ1–40Cy5 peptide and FITC-inulin were calculated as previously described. Once influx and efflux Papp were determined for each molecule, the specific transport of Aβ1–40Cy5 across the BLECs in influx and efflux directions were identified by calculating the transcytosis quotient of Aβ1–40Cy5 using the following formulas: “influx transcytosis quotient of Aβ1–40Cy5 = (influx Aβ1–40Cy5 Papp)/(influx FITC-inulin Papp)” or “efflux transcytosis quotient of Aβ1–40Cy5 = (efflux Aβ1–40Cy5 Papp)/(efflux FITC-inulin Papp)”. For each filter, the mass balance was determined as described in Section 4.4. […]

[4] = immunofluorescence, ImageJ, normalized by number of nuclei

Substance	effect on BLEC viability (BLECs [1])	BLEC morphology and TJ protein localization (BLECs [2])	apical-to-basolateral transcytosis quotient (specific influx) of Aβ1–40Cy5 peptide (BLECs [3])	reduction of basolateral-to-apical transcytosis quotient (specific efflux) of Aβ1–40Cy5 peptide (BLECs [3]) [%]	increase of claudin-5 area fraction staining compared to IL-1β treatment (BLECs [2]; [4]) [%]	increase of claudin-5 area fraction staining compared to control condition (BLECs [2]; [4]) [%]	claudin-3 area fraction staining, increase compared to IL-1β treatment (BLECs [2]; immunofluorescence, ImageJ, normalized by number of nuclei, printed as 'at') [%]
interleukin-1β [IL-1β]	did not affect BLEC viability	did not cause changes in BLEC morphology and TJ protein localization	not modified	25.9			
tumor necrosis factor-α [TNF-α]		induces a change in BLEC morphology and an increase of claudin-3 and claudin-5 cytoplasmic staining	not modified	26.9	162.1	161.8	129.8
